What was measured:
Format in all cases: in vivo
[1] = tested on: sedge, umbrella (small-flower umbrella sedge, Cyperus difformis); test: Test B flooded paddy test; conditions: Cyperus difformis, Flood, 250 g ai/ha; scale of 0 to 100 where 0 is no effect and 100 is complete control; read-out: Sedge, Umbrella plant response rating
Procedure, shortened: (§1)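 Flooding to 3 cm over soil accompanied treatment, which consisted of adding compound to the standing water around 2-leaf plants; depth was then maintained. Visual assessment versus controls followed at 13 to 15 d (scale 0–100, 0 meaning no effect).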

[2] = tested on: ducksalad (Heteranthera limosa); test: Test B flooded paddy test; conditions: Heteranthera limosa, Flood, 250 g ai/ha; scale of 0 to 100 where 0 is no effect and 100 is complete control; read-out: Ducksalad plant response rating
Procedure, shortened: as §1

[3] = tested on: barnyardgrass (Echinochloa crus-galli); test: Test B flooded paddy test; conditions: Echinochloa crus-galli, Flood, 250 g ai/ha; scale of 0 to 100 where 0 is no effect and 100 is complete control; read-out: Barnyardgrass plant response rating
Procedure, shortened: as §1

rice (Oryra sativa) = test: Test B flooded paddy test; conditions: Oryza sativa, Flood, 250 g ai/ha; scale of 0 to 100 where 0 is no effect and 100 is complete control; read-out: Rice plant response rating
Procedure, shortened: as §1

corn (Zea mays) = test: Test A postemergence; conditions: Zea mays, post-emergence, 240 h; for plant injury at 125 g/ha: 125 g ai/ha, postemergence, visual injury rating after approximately 10 d, read-out: Corn plant response rating (0 to 100 scale, 0 no effect, 100 complete control)
Procedure, shortened: (§2)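 Preemergence directed soil spray on seeded pots, or postemergence application to plants 2–10 cm, one- to two-leaf. Solvent mixture non-phytotoxic, with surfactant. Scored ~10 d later, visually, 0–100 vs untreated.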

[4] = tested on: Galium (catchweed bedstraw, Galium aparine); test: Test A postemergence; conditions: Galium, post-emergence, 240 h; for pest or weed control at 125 g/ha: 125 g ai/ha, postemergence, visual injury rating after approximately 10 d, read-out: Galium plant response rating (0 to 100 scale, 0 no effect, 100 complete control)
Procedure, shortened: as §2

[5] = tested on: wheat (Triticum aestivum); test: Test A postemergence; conditions: Triticum aestivum, post-emergence, 240 h; for plant injury at 125 g/ha: 125 g ai/ha, postemergence, visual injury rating after approximately 10 d, read-out: Wheat plant response rating (0 to 100 scale, 0 no effect, 100 complete control)
Procedure, shortened: as §2

[6] = tested on: giant foxtail (Setaria faberii); test: Test A postemergence; conditions: Setaria faberi, post-emergence, 240 h; for pest or weed control at 125 g/ha: 125 g ai/ha, postemergence, visual injury rating after approximately 10 d, read-out: Foxtail, Giant plant response rating (0 to 100 scale, 0 no effect, 100 complete control)
Procedure, shortened: as §2

Kochia (Kochia scoparia) = test: Test A postemergence; conditions: Bassia scoparia, post-emergence, 240 h; for pest or weed control at 125 g/ha: 125 g ai/ha, postemergence, visual injury rating after approximately 10 d, read-out: Kochia plant response rating (0 to 100 scale, 0 no effect, 100 complete control)
Procedure, shortened: as §2

[7] = tested on: ryegrass, Italian (Italian ryegrass, Lolium multiflorum); test: Test A postemergence; conditions: Lolium multiflorum, post-emergence, 240 h; for pest or weed control at 125 g/ha: 125 g ai/ha, postemergence, visual injury rating after approximately 10 d, read-out: Ryegrass, Italian plant response rating (0 to 100 scale, 0 no effect, 100 complete control)
Procedure, shortened: as §2

[8] = tested on: barnyardgrass (Echinochloa crus-galli); test: Test A postemergence; conditions: Echinochloa crus-galli, post-emergence, 240 h; for pest or weed control at 125 g/ha: 125 g ai/ha, postemergence, visual injury rating after approximately 10 d, read-out: Barnyardgrass plant response rating (0 to 100 scale, 0 no effect, 100 complete control)
Procedure, shortened: as §2

[9] = tested on: blackgrass (Alopecurus myosuroides); test: Test A postemergence; conditions: Alopecurus myosuroides, post-emergence, 240 h; for pest or weed control at 125 g/ha: 125 g ai/ha, postemergence, visual injury rating after approximately 10 d, read-out: Blackgrass plant response rating (0 to 100 scale, 0 no effect, 100 complete control)
Procedure, shortened: as §2

[10] = tested on: ragweed (common ragweed, Ambrosia elatior); test: Test A postemergence; conditions: Ambrosia artemisiifolia, post-emergence, 240 h; for pest or weed control at 125 g/ha: 125 g ai/ha, postemergence, visual injury rating after approximately 10 d, read-out: Ragweed plant response rating (0 to 100 scale, 0 no effect, 100 complete control)
Procedure, shortened: as §2

[11] = tested on: pigweed (Amaranthus retroflexus); test: Test A postemergence; conditions: Amaranthus retroflexus, post-emergence, 240 h; for pest or weed control at 125 g/ha: 125 g ai/ha, postemergence, visual injury rating after approximately 10 d, read-out: Pigweed plant response rating (0 to 100 scale, 0 no effect, 100 complete control)
Procedure, shortened: as §2

| SMILES | pest or weed control at 250 g/ha [1] [%] | pest or weed control at 250 g/ha [2] [%] | pest or weed control at 250 g/ha [3] [%] | pest or weed control at 250 g/ha (rice (Oryra sativa)) [%] | plant injury at 125 g/ha (corn (Zea mays)) [%] | pest or weed control at 125 g/ha [4] [%] | plant injury at 125 g/ha [5] [%] | pest or weed control at 125 g/ha [6] [%] | pest or weed control at 125 g/ha (Kochia (Kochia scoparia)) [%] | pest or weed control at 125 g/ha [7] [%] | pest or weed control at 125 g/ha [8] [%] | pest or weed control at 125 g/ha [9] [%] | pest or weed control at 125 g/ha [10] [%] | pest or weed control at 125 g/ha [11] [%] | other results |
| --- | --- | --- | --- | --- | --- | --- | --- | --- | --- | --- | --- | --- | --- | --- | --- |
| CN1C[C@H](c2cccc(C3CC3)c2)[C@@H](C(=O)Nc2ccccc2F)C1=O [Compound 815] | 0 | 75 | 65 | 20 | 50 | 50 | 30 | 90 | 40 | 60 | 100 | 50 | 0 | 20 |  |
| CN1CC[C@H](c2ccc3c(c2)OC(F)(F)O3)[C@@H](C(=O)Nc2ccc(F)c(F)c2F)C1=O [Compound 813] | 0 | 100 | 70 | 20 | 40 | 30 | 30 | 80 | 0 | 20 | 80 | 80 | 0 | 0 | Corn plant response rating (crop injury, 0 = no effect, 100 = complete kill) at 31 g/ha (corn (Zea mays); Postemergence, 31 g ai/ha, visual injury after approx. 10 d, 0 to 100 scale, 0 no effect, 100 complete control): 30%; pest or weed control at 31 g/ha ([4]; Postemergence, 31 g ai/ha, visual injury after approx. 10 d, 0 to 100 scale, 0 no effect, 100 complete control, read-out: Plant response rating, Galium): 20%; plant injury at 31 g/ha ([5]; Postemergence, 31 g ai/ha, visual injury after approx. 10 d, 0 to 100 scale, 0 no effect, 100 complete control, read-out: Plant response rating, Wheat): 0%; pest or weed control at 31 g/ha ([6]; Postemergence, 31 g ai/ha, visual injury after approx. 10 d, 0 to 100 scale, 0 no effect, 100 complete control, read-out: Plant response rating, Foxtail, Giant): 70%; pest or weed control at 31 g/ha (Kochia (Kochia scoparia); Postemergence, 31 g ai/ha, visual injury after approx. 10 d, 0 to 100 scale, 0 no effect, 100 complete control, read-out: Plant response rating, Kochia): 0%; pest or weed control at 31 g/ha ([7]; Postemergence, 31 g ai/ha, visual injury after approx. 10 d, 0 to 100 scale, 0 no effect, 100 complete control, read-out: Plant response rating, Ryegrass, Italian): 0%; pest or weed control at 31 g/ha ([8]; Postemergence, 31 g ai/ha, visual injury after approx. 10 d, 0 to 100 scale, 0 no effect, 100 complete control, read-out: Plant response rating, Barnyardgrass): 40%; pest or weed control at 31 g/ha ([9]; Postemergence, 31 g ai/ha, visual injury after approx. 10 d, 0 to 100 scale, 0 no effect, 100 complete control, read-out: Plant response rating, Blackgrass): 30%; pest or weed control at 31 g/ha ([10]; Postemergence, 31 g ai/ha, visual injury after approx. 10 d, 0 to 100 scale, 0 no effect, 100 complete control, read-out: Plant response rating, Ragweed): 0%; pest or weed control at 31 g/ha ([11]; Postemergence, 31 g ai/ha, visual injury after approx. 10 d, 0 to 100 scale, 0 no effect, 100 complete control, read-out: Plant response rating, Pigweed): 0% |
